Assay results: US6979686B1, “Substituted pyrazoles as p38 kinase inhibitors” (Pharmacia Corporation, priority 2001, dated 2005)
pIC50: −log10 of the molar value. Read-outs that look alike come from different tables or passages of the source. Blank lines part the entries; values can stand above or below the compound they belong to.

Columns and labels:
[1] = system: TNF-α, U937 human histiocytic lymphoma cell line; assay: LPS stimulation of TNF production by U937 cells; format: cell-based; conditions: for inhibition at 1 µM: U-937, @ 1.0 uM, read-out: U937 Cell % inhib @ conc.; for pIC50: human U937 cells stimulated with LPS, read-out: U937 Cell IC50
Method in brief: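 U937 cells differentiated 24 h with 20 ng/ml PMA, rested 24-48 h, used at 2 million cells/ml. Compounds in 0.1% DMSO final; LPS (E. coli, 100 ng/ml final) stimulation for 4 h at 37° C. Released TNF-α measured by ELISA; IC50 (μM).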

human p38 kinase alpha = target: T1, human p38 kinase alpha (Homo sapiens, UniProt Q16539); assay: p38 kinase in vitro assay, phosphorylation of biotinylated PHAS-I with 32P-ATP; format: biochemical; conditions: for pIC50: read-out: P38 alpha kinase IC50; for P38 alpha kinase % inhib @ conc. (uM): @ 1.0 uM
T1 construct: GST (N, cleaved yes); made in house; host or cells: E. coli DH10B

[2] = Homo sapiens, TNF production, U937 cells stimulated with LPS
[3] = in vitro P38-alpha kinase inhibition
[4] = Homo sapiens, U-937, TNF production
[5] = @ 1.0 uM, TNF production, U937 cells stimulated with LPS
[6] = Homo sapiens, TNF production, LPS-stimulated U937 cells
[7] = @ 1.0 uM, TNF production in human U937 cells stimulated with LPS

T1 sequence (Q16539 whole entry): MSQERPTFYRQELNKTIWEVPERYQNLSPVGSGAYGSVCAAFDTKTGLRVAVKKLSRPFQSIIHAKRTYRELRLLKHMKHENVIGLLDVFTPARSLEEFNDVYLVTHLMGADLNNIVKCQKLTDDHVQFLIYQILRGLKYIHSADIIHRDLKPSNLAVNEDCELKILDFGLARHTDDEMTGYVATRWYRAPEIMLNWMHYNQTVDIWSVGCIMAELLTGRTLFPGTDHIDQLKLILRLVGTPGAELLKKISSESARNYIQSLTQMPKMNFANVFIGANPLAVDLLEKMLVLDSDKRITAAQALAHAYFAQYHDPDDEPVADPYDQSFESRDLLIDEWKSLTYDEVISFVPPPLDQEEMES

SMILES: CNC(=O)CCC(NC(=O)Nc1c(C)cccc1C)c1[nH]nc(-c2ccc(F)cc2)c1-c1ccncc1 (centres unmarked) [Example B-0882]
inhibition at 1 µM [1, 2]: 9%
pIC50 (human p38 kinase alpha; [3]): 5.83

SMILES: O=S(=O)(c1ccc(F)c(F)c1)N1CCC(c2[nH]nc(-c3ccc(F)cc3)c2-c2ccncc2)CC1 [Example B-1456]
pIC50 [1, 4]: < 6.00
pIC50 (human p38 kinase alpha; in vitro P38-alpha kinase): 5.89

SMILES: Cc1c(-c2ccncc2)c(-c2ccc(F)cc2)nn1CC(=O)N(C)CCn1ccnc1 [Example B-2393]
IC50 ([1]; TNF production, U937 cells stimulated with LPS, read-out: U937 Cell IC50, uM or % inhib @ conc. (uM): IC50): > 10 µM
P38 alpha kinase IC50, uM or % inhib @ conc. (uM): % inhib (human p38 kinase alpha; @ 10.0 uM): 43.0% @

SMILES: O=C(NCc1[nH]nc(-c2ccc(F)cc2)c1-c1ccncc1)[C@@H]1CCCN1 [B0194]
U937 Cell % inhib @ conc. [1, 5]: 22% @
pIC50 (human p38 kinase alpha; in vitro P38-alpha kinase): 5.88

SMILES: O=S(=O)(c1ccccc1C(F)(F)F)N1CCC(c2[nH]nc(-c3ccc(F)cc3)c2-c2ccncc2)CC1 [Example B-1460]
inhibition at 1 µM [1, 6]: 29%
pIC50 (human p38 kinase alpha; in vitro P38-alpha kinase): 6.02

SMILES: CC(=O)OC(C)C(=O)NC(Cc1ccccc1)c1[nH]nc(-c2ccc(F)cc2)c1-c1ccncc1 (centres unmarked) [Example B-0841]
U937 Cell % inhib @ conc. (uM) [1, 5]: 36.0% @
pIC50 (human p38 kinase alpha; [3]): 6.49

SMILES: O=C(NCCCc1[nH]nc(-c2ccc(F)cc2)c1-c1ccncc1)NCC1CC1 [Example B-1316]
inhibition at 1 µM [1, 6]: 36%
pIC50 (human p38 kinase alpha; in vitro P38-alpha kinase): 7.59

SMILES: Cc1c(-c2ccncc2)c(-c2ccc(F)cc2)nn1CC(=O)N1CCCCC1CC1CCCN1C (mixture of isomers) [Example B-2388]
U937 Cell IC50, uM or % inhib @ conc. (uM): % inhib ([1]; @ 10.0 uM, TNF production, U937 cells stimulated with LPS): 24.0% @
P38 alpha kinase IC50, uM or % inhib @ conc. (uM): % inhib (human p38 kinase alpha; @ 10.0 uM): 42.0% @

SMILES: CC(NC(=O)c1ccc(F)c(F)c1F)c1[nH]nc(-c2ccc(F)cc2)c1-c1ccncc1 (centres unmarked) [Example B-0546]
inhibition at 1 µM ([1]; Homo sapiens, TNF production in human U937 cells stimulated with LPS): 18%
pIC50 (human p38 kinase alpha; [3]): 5.98

SMILES: CC(=O)OC(C)C(=O)NC(Cc1ccccc1)c1[nH]nc(-c2ccc(F)cc2)c1-c1ccncc1 (centres unmarked) [Example B-0809]
U937 Cell % inhib @ conc. (uM) [1, 5]: 7.0% @
pIC50 (human p38 kinase alpha; [3]): 5.91

SMILES: Cc1c(-c2ccncc2)c(-c2ccc(F)cc2)nn1CC(=O)NC1CCc2ccccc21 (centres unmarked) [Example B-2318]
U937 Cell % inhib @ conc. ([1]; @ 10.0 uM, TNF production, LPS-stimulated U937 cells): 25.0% @
P38 alpha kinase % inhib @ conc. (human p38 kinase alpha; @ 10.0 uM): 73.0% @

SMILES: COc1ccccc1C(=O)NC(Cc1ccccc1)c1[nH]nc(-c2ccc(F)cc2)c1-c1ccncc1 (centres unmarked) [Example B-0843]
pIC50 [1, 4]: < 6.00
pIC50 (human p38 kinase alpha; [3]): 6.21

SMILES: O=S(=O)(NCCc1[nH]nc(-c2ccc(F)cc2)c1-c1ccncc1)c1cc(Cl)c(Cl)s1 [Example B-1080]
inhibition at 1 µM [1, 2]: 28%
pIC50 (human p38 kinase alpha; [3]): 6.72

Second part, led by results:

pIC50 (human p38 kinase alpha; [3]): 6.74
SMILES: CC(=O)Nc1ccc(S(=O)(=O)NCCc2[nH]nc(-c3ccc(F)cc3)c2-c2ccncc2)cc1 [Example B-1059]
inhibition at 1 µM [1, 2]: 24%

pIC50 [1, 4]: < 6.00
pIC50 (human p38 kinase alpha; [3]): 5.30
SMILES: Cc1ccc(C(=O)NC(Cc2ccccc2)c2[nH]nc(-c3ccc(F)cc3)c2-c2ccncc2)cc1 (centres unmarked) [Example B-0818]

pIC50 (human p38 kinase alpha; [3]): 7.39
SMILES: O=C(NCCc1[nH]nc(-c2ccc(F)cc2)c1-c1ccncc1)c1ccc(F)cc1C(F)(F)F [Example B-1139]
inhibition at 1 µM [1, 2]: 29%

pIC50 (human p38 kinase alpha; in vitro P38-alpha kinase): 6.85
SMILES: O=S(=O)(NCCCc1[nH]nc(-c2ccc(F)cc2)c1-c1ccncc1)c1cccc(Cl)c1Cl [Example B-1250]
inhibition at 1 µM [1, 6]: 18%

pIC50 [1, 4]: 6.32
pIC50 (human p38 kinase alpha; in vitro P38-alpha kinase): > 7.00
SMILES: O=S(=O)(NCCCc1[nH]nc(-c2ccc(F)cc2)c1-c1ccncc1)c1ccccc1Br [Example B-1259]

pIC50 (human p38 kinase alpha; [3]): 6.47
SMILES: CC(NC(=O)c1ccccc1F)c1[nH]nc(-c2ccc(F)cc2)c1-c1ccncc1 (centres unmarked) [Example B-0699]
U937 Cell % inhib @ conc. (uM) [1, 7]: 31.0% @

pIC50 (human p38 kinase alpha; [3]): 5.49
SMILES: O=C(NCCc1[nH]nc(-c2ccc(F)cc2)c1-c1ccncc1)c1ccc(C(F)(F)F)cc1 [Example B-1155]
inhibition at 1 µM [1, 2]: 30%

pIC50 ([1]; TNF production): 6.00
P38 alpha kinase % inhib @ conc. (uM) (human p38 kinase alpha): 66.0% @
SMILES: O=C(NCCCc1[nH]nc(-c2ccc(F)cc2)c1-c1ccncc1)C1CCC1 [Example B-1165]

pIC50 ([1]; TNF production): 6.10
P38 alpha kinase % inhib @ conc. (uM) (human p38 kinase alpha): 71.0% @
SMILES: COc1cccc(C(=O)NCCCc2[nH]nc(-c3ccc(F)cc3)c2-c2ccncc2)c1 [Example B-1185]

pIC50 [1, 4]: < 6.00
pIC50 (human p38 kinase alpha; [3]): 5.82
SMILES: O=C(NCCc1[nH]nc(-c2ccc(F)cc2)c1-c1ccncc1)c1cc(Cl)cc(Cl)c1 [Example B-1126]

pIC50 (human p38 kinase alpha; [3]): 5.68
SMILES: CC(NC(=O)c1cccc(C#N)c1)c1[nH]nc(-c2ccc(F)cc2)c1-c1ccncc1 (centres unmarked) [Example B-0676]
U937 Cell % inhib @ conc. (uM) [1, 7]: 22.0% @

pIC50 (human p38 kinase alpha; [3]): 6.42
SMILES: Cc1cccc(C(=O)NC(C)c2[nH]nc(-c3ccc(F)cc3)c2-c2ccncc2)c1 (centres unmarked) [Example B-0692]
U937 Cell % inhib @ conc. (uM) [1, 7]: 29.0% @
